Source: patent publication EP2433624B1, “Use of buparvaquone for controlling mites parasitising honeybees” (Bimeda International Pharmaceuticals Limited, priority 2010, dated 2012)
Values joined by “and” are separate entries in the source; they are usually repeats but may differ in a detail not shown here. Equal values may be shown once. Read-outs that look alike come from different tables or passages of the source.

Tests used:
[1] = Toxicity of BPQ B to honeybee larvae when fed treated syrup; format: in vivo, Apis mellifera; conditions: honeybee, in vivo, po, read-out: % Emergence
Excerpt: (§1) To measure the effect of treatment on developing larvae when fed syrup treated with BPQ powder, BPQ B, dissolved in the solvent (N-methyl pyrollidone) and diluted in an aqueous solution.
(§2) Apidae boxes were used to raise young queens and when virgin queens started to lay an area 6cm x 3cm were marked and missing cells were noted. The miniature colony was fed treated syrup, which was made by dissolving BPQ B powder in solvent, followed by serial dilutions using a sucrose solution (2 parts sugar: 1 part water). The concentrations administered are given below. Two replicates were carried out for the product, while 1 colony (apidae) was used for each of the solvent concentrations.

honeybee larvae = test: as above; format: in vivo, Apis mellifera; conditions: for Sealed cells / Young bees emerged: 40 cells
Excerpt: as §1, §2

Varroa mites [2] = test: Efficacy of BPQ B against Varroa mites on honeybees fed treated sucrose solution; format: in vivo
Procedure: (§3) Example 6 - Toxicity of BPQ B to Varroa mites on honeybees when fed treated sucrose solution
To estimate the percentage efficacy of BPQ at different concentrations in sucrose solution
(§4) A total of 20 newly emerged Varroa infested bees were placed in hoarding cages. The cages were prepared as described in Section 1.0, except that the air vents were reduced in size using parafilm to prevent the Varroa mites escaping during the test period. The mean(±se) number of mites per 20 bees was estimated prior to commencement of the experiment and an additional 5 mites per cage were added. (mean±se = 10.6±0.33). This was carried out by collecting adult female mite from drone pupae, placing them in an eppendorf tube and then releasing them into the cages.
(§5) The treatment solution was made by dissolving BPQ B in solvent, followed by two aqueous serial dilutions producing a concentration of 500µg/mL and 5 µg/mL. From the latter, further serial dilutions were carried with sucrose solution producing the following concentrations: • 0.5µg/mL. (C1-C3) • 0.05µg/mL. (D1-D3) • 0.005µg/mL. (E1-E3) • 0.0005µg/mL. (F1-F3) • 0.00005µg/mL (G1-G3)
(§6) Three replicates were established at each concentration plus a control group which were only fed sugar syrup. All cages were placed in the incubator at 32°C and monitored on a daily basis for the number of mites and number of bees knocked down. At the end of five day treatment period, the percentage efficacy of the treatment was estimated by treating bees in all cages with Apistan (Trade Mark of Vita (Europe) Ltd. Apistan contains fluvalinate which is a synthetic pyrethroid. % efficacy = mites knocked from treatment/total mites (treatment+Apistan)*100 [formula]

honeybees [3] = test: Bee survival in the test with BPQ B fed in sucrose solution; format: in vivo, Apis mellifera
Procedure: as §3, §4, §5
Three replicates were established at each concentration plus a control group which were only fed sugar syrup. All cages were placed in the incubator at 32°C and monitored on a daily basis for the number of mites and number of bees knocked down. […]

Varroa mites [4] = test: Efficacy of BPQ B against Varroa mites on honeybees sprayed with an aqueous solution; format: in vivo; conditions: sprayed as an aqueous solution, preliminary
Procedure: (§7) Example 7 - Toxicity of BPQ B to Varroa mites on honeybees when sprayed with an aqueous solution of the active ingredient
To estimate the percentage efficacy of BPQ B at different concentrations when sprayed as an aqueous solution onto adult bees
(§8) A total of 20 newly emerged Varroa infested bees were placed in hoarding cages. The cages were prepared as described in Section 1.0, except that the air vents were reduced in size using parafilm to prevent the Varroa mites escaping during the test period. The mean(±se) number of mites per 20 bees was estimated prior to commencement and an additional 10 mites per cage were added. Mites were collected and introduced as described above. The treatment solution was made by dissolving BPQ B in solvent, followed by two aqueous serial dilutions producing a concentration of 500µg/mL and 5µg/mL. From the latter, further serial dilutions were carried in water producing the following concentrations: • 0.5µg/mL. (C1-C3) • 0.05µg/mL. (D1-D3) • 0.005µg/mL. (E1-E3) • 0.0005µg/mL. (F1-F3) • 0.00005µg/mL (G1-G3)
as §6, with “sprayed with water only. All test groups were” for “only”, “10mL of 1:1 sucrose:water solution and” for “sugar syrup. All cages were”, “Apistan.” for “Apistan (Trade Mark of Vita (Europe) Ltd. Apistan contains fluvalinate which is a synthetic pyrethroid.”

honeybees [5] = test: Survival of bees sprayed with aqueous solutions of BPQ; format: in vivo, Apis mellifera; conditions: sprayed as an aqueous solution
Procedure: as §7, §8
as §6, with “sprayed with water only. All test groups were” for “only”, “10mL of 1:1 sucrose:water solution and” for “sugar syrup. All cages were”, “Apistan.” for “Apistan (Trade Mark of Vita (Europe) Ltd. Apistan contains fluvalinate which is a synthetic pyrethroid.”

[6] = 0.00005µg/mL (g1) in sucrose fed to colony
[7] = 0.0005µg/mL (f1-f2) in sucrose fed to colony
[8] = 0.005µg/mL (e1-e2) in sucrose fed to colony
[9] = 0.05µg/mL (d1-d2) in sucrose fed to colony
[10] = 0.5µg/mL (c1-c2) in sucrose fed to colony
[11] = 0.00005µg/mL (g1-g3) in sucrose solution fed to 20 infested bees per cage

SMILES: CC(C)(C)[C@H]1CC[C@H](CC2=C(O)C(=O)c3ccccc3C2=O)CC1 [BPQ B, buparvaquone]
- survival [1, 6]: 96.8%
- survival [1, 7]: 70.3%
- survival [1, 8]: 82.4%
- survival [1, 9]: 81.8%
- survival [1, 10]: 85.7%
- Sealed cells (honeybee larvae; [6]): 30
- Young bees emerged (honeybee larvae; [6]): 30
- % Emergence (honeybee larvae; [7]): 87.5%
- Sealed cells (honeybee larvae; [7]): 32 and 30
- Young bees emerged (honeybee larvae; [7]): 26 and 28
- % Emergence (honeybee larvae; [8]): 86.5%
- Sealed cells (honeybee larvae; [8]): 31 and 37
- Young bees emerged (honeybee larvae; [8]): 28 and 32
- % Emergence (honeybee larvae; [9]): 69.7%
- Sealed cells (honeybee larvae; [9]): 30 and 29
- Young bees emerged (honeybee larvae; [9]): 27 and 23
- % Emergence (honeybee larvae; [10]): 93.9%
- Sealed cells (honeybee larvae; [10]): 32 and 33
- Young bees emerged (honeybee larvae; [10]): 30 and 31
- toxicity for bee larvae (honeybee larvae; powder dissolved in NMP, diluted in water then sugar solution, any concentration): No toxicity
- daily Varroa mite drop down, Day 4 (Varroa mites [2]; [11]): 0
- daily Varroa mite drop down, Day 6 (Varroa mites [2]; [11]): 0
- daily Varroa mite drop down, Day 2 (Varroa mites [2]; 0.0005µg/mL (f1-f3) in sucrose solution fed to 20 infested bees per cage): 7 and 9
- effective in Varroa knockdown (Varroa mites [2]; 0.0005µg/mL, fed in sugar solution): > 80%
- daily Varroa mite drop down, Day 5 (Varroa mites [2]; 0.05µg/mL (d1-d3) in sucrose solution fed to 20 infested bees per cage): 1
- daily Varroa mite drop down, Day 6 (Varroa mites [2]; 0.5µg/mL (c1-c3) in sucrose solution fed to 20 infested bees per cage): 1 and 2
- maximum efficacy (Varroa mites [2]; fed in a sucrose solution, treatment f (0.0005µg/mL), 5 day treatment): approximately 82%
- minimum efficacy (Varroa mites [2]; fed in a sucrose solution, treatment g (0.00005µg/mL), 5 day treatment): 43.8%
- bee survival (honeybees [3]; fed in a sucrose solution, day 5): no negative effects
- toxicity for bees (honeybees [3]; powder dissolved in NMP, diluted in water then sugar solution, tested over 5 days, any concentration): No toxicity
- mean minimum efficacy (Varroa mites [4]; treatment d (0.05µg/mL)): 28.4%
- mean maximum efficacy (Varroa mites [4]; treatment g (0.00005µg/mL)): 46.2%
- percentage efficacy against the Varroa mite (Varroa mites [4]): low
- toxicity to bees (honeybees [5]): very low
